“Also recorded” adds a separate entry of the source.
Experiments:
Female Lewis rats = assay: Toxicity in Female Lewis rats; type: in vivo; conditions: 100 mg/kg ip, in comparison with PBS control
Method: The next set of experiments was designed to determine the toxicity of the compounds. Each compound was administered to Female Lewis rats at a dose of 100 mg/kg via ip administration.

[1] = system: B-cell neoplastic cell line RPMI 8226; assay: Inhibition of proliferation of RPMI cells; type: cell-based; conditions: RPMI cell viability, FIG. 1
Source text: The next set of experiments was designed to assess compounds that have low levels of brain penetration for the ability of the test compounds to inhibit cellular proliferation. An exemplary in vitro assay is to screen for the ability of the test compounds to inhibit proliferation of the B-cell neoplastic cell line RPMI 8226 (a plasmacytoma derived from a multiple myeloma patient (Matsuoka, et al., 1967, Proc. Soc. Exp. Biol. Med. 125: 1246-1250). However other cell line can be used such as, U266 (established from an IgE-secreting myeloma patient (Nilsson, et al., 1970, Clin. Exp. Immunol., 7: 477-489) and ARH77 (an EBV transformed plasma cell leukemia (Burk, et al., 1978, Cancer Res. 38: 2508-2513).
FIG. 1 is a graph depicting the effects on the test compounds on RPMI cell viability.

5-HT1A receptor = molecular target: T1, 5-HT1A receptor (Homo sapiens, UniProt P08908); assay: 5-HT1A receptor binding; conditions: versus fluphenazine (ICI-1175), FIG. 8
T1 sequence (P08908 1-422): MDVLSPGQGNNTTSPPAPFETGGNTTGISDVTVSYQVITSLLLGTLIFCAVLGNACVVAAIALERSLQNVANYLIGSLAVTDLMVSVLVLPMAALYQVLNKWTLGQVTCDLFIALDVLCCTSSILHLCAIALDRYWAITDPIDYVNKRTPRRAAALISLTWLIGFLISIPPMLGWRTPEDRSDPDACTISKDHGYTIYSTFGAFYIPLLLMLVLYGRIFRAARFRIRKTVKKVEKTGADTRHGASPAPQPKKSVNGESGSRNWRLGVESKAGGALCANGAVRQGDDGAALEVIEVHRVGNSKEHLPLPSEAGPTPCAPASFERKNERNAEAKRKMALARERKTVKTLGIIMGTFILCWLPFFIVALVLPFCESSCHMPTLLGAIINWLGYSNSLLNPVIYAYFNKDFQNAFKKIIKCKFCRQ
Method: (§1) The methods employed in this study have been adapted from the scientific literature to maximize reliability and reproducibility. Where presented, IC50 values were determined by a non-linear, least squares regression analysis using the DATA ANALYSIS TOOLBOX (MDL Information Systems, San Leandro, Calif., USA). Where inhibition constants (Ki) are presented, the Ki values were calculated using the equation of Cheng and Prusoff (Cheng, Y., Prusoff, W. H., Biochem. Pharmacol. 22:3099-3108, 1973) or equivalent using the observed IC50 of the tested compound, the concentration of ligand employed in the assay, and historical values for the KD of the ligand.
(§2) The next set of experiments was designed to assess the selective binding of the test compounds to 5-HT receptors. ICI-848, ICI-1259, and ICI-1260 were tested against fluphenazine (ICI-1175) to determine selective binding to 5-HT receptors.

5-HT2A receptor = 5-HT2A receptor (Homo sapiens, UniProt P28223); assay: 5-HT2A receptor binding; conditions: versus fluphenazine (ICI-1175), FIG. 8
Method: as §1
(§3) The experiments include contacting a serotonin type 1B, 2A, 2B, 2C, 3, 4, 6, and 7 receptor with a test compound and comparing the level of binding of serotonin or a control ligand with that serotonin type 1B, 2A, 2B, 2C, 3, 4, 6, and 7 receptor with the level of serotonin binding or control ligand binding with an otherwise identical serotonin type 1B, 2A, 2B, 2C, 3, 4, 6, and 7 receptor not contacted with the test compound. […] The skilled artisan would also appreciate, in view of the disclosure provided herein, that standard binding assays known in the art, or those to be developed in the future, can be used to assess the binding of serotonin or a control ligand with a serotonin type 1B. 2A, 2B, 2C, 3, 4, 6, and 7 receptor in the presence or absence of the test compound to identify a useful compound.
as §2

[2] = molecular target: histamine type 1 receptor (Homo sapiens, UniProt P35367); assay: Binding to non-5-HT receptors: histamine type 1 receptor; conditions: FIG. 12
Method: as §1
The next set of experiments was designed to assess the selective binding of the test compounds to non-5-HT receptors. The compounds tested are as follows: ICI-735, 848, 849, 1259, and 1260. […] It was also observed that the compounds that bound well to 5-HT4 receptor also bound well to histamine type 1 receptor.

[3] = system: rat model of collagen-induced arthritis; assay: Rat model of collagen-induced arthritis, ankle diameter; type: in vivo; conditions: for reduction of ankle diameter: 10 mg/kg ip daily, about 3 days, caliper measurement; for efficacy in reducing ankle diameter compared with Enbrel: rheumatoid arthritis rat model, versus Enbrel
Method: The next set of experiments was designed to test the ability of the compounds of the invention on a rat model of collagen-induced arthritis. Briefly, Female Lewis rats were immunized with bovine type 2 collagen 2 mg/mL in 0.01N HAc mixed 1:1 w/ FIA injected id 0.1 mL at each of three sites on back (Rosloniec, E. F., A. H. Kang, L. K. Myers, M. A. Cremer. 1996. Collagen-induced arthritis. R. Coico, and E. Shevach, eds. Current Protocols in Immunology 15.5.1. Weily & Sons, New York.).
FIG. 2 depicts a schematic of the collagen-induced arthritis protocol. Briefly, a test compound of the invention is delivered ip at 10 mg/kg daily, for about 3 days.
FIG. 4 depicts ICI 1260, 1259, 848, 849, 761, 715, and 847 with respect to Enbrel. Additional testing for the effectiveness of compounds ICI 1260, 1259, 848, 849, 761, 715, and 847 at various concentrations (10 mg/kg, 2 mg/kg, 0.4 mg/kg) were conducted, as illustrated in FIGS. 5A-5G. A dose response curve was constructed to illustrate the efficacy of the seven compounds (FIG. 6).

5-HT4 receptor = 5-HT4 receptor (Homo sapiens, UniProt Q13639); assay: 5-HT4 receptor binding; conditions: versus fluphenazine (ICI-1175), FIG. 8
Method: as §1, §3, §2
The next set of experiments was designed to assess the Ki values of the tested compounds.

Chain of 5-HT2A receptor (P28223 whole entry): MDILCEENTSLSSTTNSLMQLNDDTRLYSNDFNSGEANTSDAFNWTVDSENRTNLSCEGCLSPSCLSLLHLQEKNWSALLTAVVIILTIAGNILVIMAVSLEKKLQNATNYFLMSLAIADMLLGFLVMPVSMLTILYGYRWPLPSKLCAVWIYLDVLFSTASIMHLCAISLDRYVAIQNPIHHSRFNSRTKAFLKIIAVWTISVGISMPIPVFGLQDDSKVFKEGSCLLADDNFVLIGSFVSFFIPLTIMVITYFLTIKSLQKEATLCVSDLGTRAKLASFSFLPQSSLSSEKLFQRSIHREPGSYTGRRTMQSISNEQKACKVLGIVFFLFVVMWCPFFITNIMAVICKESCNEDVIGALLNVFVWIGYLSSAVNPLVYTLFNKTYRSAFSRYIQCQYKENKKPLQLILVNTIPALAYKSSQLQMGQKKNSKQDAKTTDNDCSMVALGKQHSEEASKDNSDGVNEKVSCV
Chain of 5-HT4 receptor (Q13639 whole entry): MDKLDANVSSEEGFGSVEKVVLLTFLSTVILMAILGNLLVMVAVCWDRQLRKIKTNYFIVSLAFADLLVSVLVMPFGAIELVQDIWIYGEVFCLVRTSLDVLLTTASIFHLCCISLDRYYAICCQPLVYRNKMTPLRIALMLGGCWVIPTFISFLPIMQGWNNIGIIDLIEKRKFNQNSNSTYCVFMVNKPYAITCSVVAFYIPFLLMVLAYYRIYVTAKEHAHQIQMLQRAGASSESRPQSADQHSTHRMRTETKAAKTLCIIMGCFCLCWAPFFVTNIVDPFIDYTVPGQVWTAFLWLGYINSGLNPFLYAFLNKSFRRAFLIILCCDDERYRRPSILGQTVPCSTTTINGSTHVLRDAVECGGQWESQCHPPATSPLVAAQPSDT
Chain of histamine type 1 receptor (P35367 whole entry): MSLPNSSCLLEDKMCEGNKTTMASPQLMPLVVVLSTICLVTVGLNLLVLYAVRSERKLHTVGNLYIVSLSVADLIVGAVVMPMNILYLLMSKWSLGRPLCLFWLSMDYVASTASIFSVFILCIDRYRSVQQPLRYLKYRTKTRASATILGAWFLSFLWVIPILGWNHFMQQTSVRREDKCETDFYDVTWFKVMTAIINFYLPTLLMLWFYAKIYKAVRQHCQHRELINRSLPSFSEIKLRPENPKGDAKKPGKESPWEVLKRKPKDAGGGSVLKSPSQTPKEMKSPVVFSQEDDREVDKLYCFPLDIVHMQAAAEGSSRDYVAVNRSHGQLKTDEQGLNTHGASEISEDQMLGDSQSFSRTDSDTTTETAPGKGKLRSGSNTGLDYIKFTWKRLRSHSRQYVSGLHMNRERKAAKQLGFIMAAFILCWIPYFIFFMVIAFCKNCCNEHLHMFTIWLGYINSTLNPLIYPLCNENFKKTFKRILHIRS

CNCC(=O)NCCCN1CCC(CCCN2c3ccccc3Sc3ccc(C(F)(F)F)cc32)CC1 [ICI-01259]
toxicity (Female Lewis rats): not toxic | ability to inhibit proliferation of RPMI cells [1]: able to inhibit the proliferation of RPMI cells | binding to 5-HT1A receptor compared to fluphenazine (5-HT1A receptor): decreased binding | binding to 5-HT2A receptor compared to fluphenazine (5-HT2A receptor): decreased binding | binding to histamine type 1 receptor [2]: able to bind histamine type 1 receptor | reduction of ankle diameter ([3]; listed as ICI-1259): decrease the ankle diameter to a desirable level; also recorded: most desirable reduction of ankle diameter | efficacy in reducing ankle diameter compared with Enbrel [3]: more effective in reducing the ankle diameter than Enbrel | binding to 5-HT4 receptor compared to fluphenazine (5-HT4 receptor): increased binding

NCC(=O)NCCCN1CCC(CCCN2c3ccccc3Sc3ccc(C(F)(F)F)cc32)CC1 [ICI-01260]
toxicity (Female Lewis rats): not toxic | ability to inhibit proliferation of RPMI cells ([1]; listed as ICI-1260): able to inhibit the proliferation of RPMI cells | binding to 5-HT1A receptor compared to fluphenazine (5-HT1A receptor): decreased binding | binding to 5-HT2A receptor compared to fluphenazine (5-HT2A receptor): decreased binding | binding to histamine type 1 receptor [2]: able to bind histamine type 1 receptor | reduction of ankle diameter ([3]; listed as ICI-1260): decrease the ankle diameter to a desirable level; also recorded: most desirable reduction of ankle diameter | efficacy in reducing ankle diameter compared with Enbrel [3]: more effective in reducing the ankle diameter than Enbrel | binding to 5-HT4 receptor compared to fluphenazine (5-HT4 receptor): increased binding
